Values quoted from earlier work in US9035093B2 (Colgate-Palmolive Company, priority 2009, dated 2015).

Settings: room temperature, natural partial pressure (3.5×10^−4 atmosphere)

maximum concentration of carbon dioxide in water: 12 µM
Structure (SMILES): O=C=O [Carbon dioxide]
